# What was measured:
# [1] = system: C3H mice; experiment: Peak procedure (30 second reinforcement interval), C3H mice; type: in vivo
# Description: The peak procedure is a behavioral model designed to assess an animal's ability to learn an appropriate time period in which to perform a task and a time period in which the animal will be rewarded if the task is performed. The model provides information concerning excitatory and inhibitory components of behavior, as subjects must respond to perform a task when appropriate and stop responding in an “empty trial” when time for reward has elapsed and the reward has not been delivered. The task is sensitive to conditions where there is a failure in inhibitory mechanisms, such as seems to be the case for ADHD (Pliszka et al., Biol. Psychiatry, 48:238-46, 2000).
# In the peak procedure, mice are trained to work for food that is delivered at the same time in each trial, but withdrawn in some unreinforced trials. Typically, the response rate increases up to a maximum around the reinforcement time, and then decreases to a low toward the end of the trial. The shape of the response rate indicates whether the animal is sensitive to the time of reinforcement. To be able to perform well in this model, the animals need to be able to learn several tasks. First, the animal must make an association between a response (lever pressing, nose poking or key pecking) and the delivery of reward. Second, the animal must be able to perceive and remember time. Third, the animal must act on its remembered time by starting and then stopping or inhibiting the response. Fourth, the animal must be able to compare the elapsed time in the trials with its remembered time to reinforcement. […] Accuracy is measured by looking at the shape of the response function; therefore, if the response function is sharper and centered on the reinforcement time it supports a conclusion that attentional processes have been heightened.
# Mice were food deprived to 85-90% of their free-feeding body weight by supplementing food earned during experimental sessions with a measured amount after the session had ended. […]
# [2] = system: wild-type mice; experiment: DRL-36s schedule after FR5 conditioning, wild-type mice; type: in vivo
# Description: Experiments were conducted in eight identical mouse operant chambers (16×14×13 cm) with stainless steel grid floors (ENV-307M; Med Associates Inc., Georgia, Vt., USA) housed in sound-insulating and ventilated cubicles. Each chamber was equipped with two ultra-sensitive retractable levers, one on each side of a food cup containing photocells to register nose poke behavior and in which a pellet dispenser delivered 20 mg food pellets (Formula A/I, P.J. Noyes Company Inc., Lancaster, N.H., USA). A red house light (50 lux) was located in the center of the wall opposite to the food cup and levers. Stimulus lights were located above each lever and above the food cup. Experimental sessions were controlled and data were recorded by a computer.
# Mice trained on DRL procedure first received operant conditioning. DRL-36s task was adapted from procedures used in rats (O'Donnell and Seiden, supra). Briefly, mice first learned to respond for food under a DRL 6 sec schedule, which means that mice had to wait at least 6 seconds between successive lever presses in order to obtain a food reward. Subsequently the schedule requirement was increased every session in steps of 6 sec to 36 sec (DRL 36 sec). Each session started with the illumination of the house light, the stimulus light above the food cup and the presentation of the left lever for the duration of the session. […] If the mouse presses too soon, no reinforcement is given, the clock is reset to zero, and a new 36-sec waiting period starts. In this way, the DRL-36s schedule task primarily measures waiting strategies which reflect hyperactivity-impulsivity behaviors associated with ADHD. Animals were trained until performances on the DRL 36 sec schedule had stabilized (approximately 25 sessions). All training sessions lasted 60 min and were conducted 5 days per week from Monday-Friday. The total number of lever presses (responses), the total number of reinforcements, and the inter-response times (IRT) are recorded.
# Data were analyzed as described elsewhere (Richards et al., J. Exp. Anal. Behav. 60:361-385, 1993; Sabol et al., Psychopharmacology 121:57-65, 1995). The inter-response time (IRT) analysis included three measures for the characterization of DRL 36 sec IRT distributions: peak area, peak location and burst ratio. Only peak area (PkA) and peak location (PkL) are presented. The PkA measure is the area of the obtained IRT distribution of a mouse above the corresponding negative exponential, a computation based on mean of obtained IRT durations excluding the burst component of IRT<3 sec (see Richards et al., supra, for details). […] Thus, decreases in PkA indicate that the mouse's IRT distribution becomes more similar to random performance indicating loss of schedule control. PkL is calculated as the median of the area of the obtained IRT distribution above the corresponding negative exponential.
# Mice were conditioned and challenged on a DRL-36s schedule according to the methods of Example 7, with the following modifications. Because 1BKO mice had difficulty learning the DRL-36s schedule following conditioning on an FR1, wild-type and 1BKO mice were conditioned on a fixed rate 5 (FR5) schedule. In FR5, instead of pressing the lever once for a reward, animals have to press 5 times. The rationale for changing the operant conditioning was that by increasing the number of responses necessary for reinforcement, the wild-type mice should have greater difficulty and the 1BKO (which have higher response rates anyway) should have less difficulty getting reinforcements.
smiles,measurement,setting,value
"c1cc2c(c(N3CCNCC3)c1)OCCO2 [eltoprazine, 1-(2,3-dihydro-1,4-benzodioxanyl-5-yl) piperazine]",relative response rate curve in peak trials,[1]; 0.1 and 0.9 mg/kg (FIG. 3),cognitive enhancement was observed
same,relative response rate curve in peak trials,"[1]; 1, 2 and 4 mg/kg (FIGS. 2A-C)",flatter than the saline curve
same,number of reinforcements,[2]; 0.5 mg/kg and 1 mg/kg i.p. (FIG. 13A),significantly decreased reinforcements
same,response rate,[2]; 0.5 mg/kg i.p. (FIG. 13B),significantly decreased response rates

# From patent US7557109B2, “Treatment for attention-deficit hyperactivity disorder” (priority 2001, dated 2009)
